Measured values taken from patent publication US6506788B1, “N-linked urea or carbamate of heterocyclic thioesters for vision and memory disorders” (GPI Nil Holdings, Inc., priority 1998, dated 2003).
Where two headings read alike, the source gives them in different places. Marks after values point to notes of the source that are not given here. Each block holds one compound with its values, some of them ahead of it.

Columns and labels:
retinal ganglion cells = test: Example 16: optic nerve transection, 28 days treatment, sacrifice at 90 days; assay type: in vivo, Sprague Dawley rats; conditions: 10 mg/kg/day s.c. for 28 days; 90 days after transection
From the text: Transection of the mammalian optic nerve results in a brief period of abortive regeneration, but the majority of axotomized neurons die and the axons from many persisting ganglion cells die back beyond the optic nerve head.

retina = test: Streptozotocin induced diabetes: retinal neovascularization and neuron loss; assay type: in vivo; conditions: 28 day treatment beginning 8 weeks after onset of diabetes
[1] = system: retinal ganglion cells and optic nerve axons; test: In vivo retinal ganglion cell and optic nerve axon tests: optic nerve transection, 14 or 28 day treatment, sacrifice at 90 days; set-up: species or system Sprague Dawley rats; conditions: for ON head area (% sham) / ON Axon density / pattern of myelin degeneration, proximal stump (myelin basic protein immunohistochemistry) / pattern of myelin labeling and degenerating myelin figures, distal stump: 90 days after transection; for ON Axon density: RT97 labeled axons in 200 μm × 200 μm region; for increased ON axon density: adjusted for optic nerve diameter; for Distat optic nerve: shrinkage of cross sectional area: cross sectional area compared to sham control
From the text: All eyes and optic nerves stumps were removed.

[2] = system: retinal ganglion cells and optic nerve; test: Retinal ischemia (intraocular pressure raised above arterial blood pressure), examined 28 days later; assay type: in vivo, rats; conditions: toluidine blue staining; 28 days after 1 hour retinal ischemia
From the text: Retinal ganglion cells were retrogradely labeled in adult rats by bilateral injection of fluorogold in their lateral geniculate nuclei. Labeled ganglion cells in the normal rat retina appear as white profiles against the dark background (FIG. 1A). Complete retinal ischemia was produced by infusing normal saline solution into the retinal vitreous cavity of each eye until the intraocular pressure exceeded arterial blood pressure. 28 days after the ischemic episode extensive degeneration of retinal ganglion cell was evidenced by massive reduction in the density of fluorogold labeled cells (FIG. 1B).
Optic nerves from vehicle treated cases examined 28 days after a 1 hour retinal ischemic episode are characterized by a decreased density of optic nerve axons and the appearance of numerous degenerating myelin figures (bright white filled circles).

aged mice = test: Morris watermaze spatial learning and memory in aged rodents; assay type: in vivo, C57BL/6N-Nia mice; conditions: 10 mg/kg daily
From the text: The Morris watermaze is widely used for assessing spatial memory formation and retention in experimental animals. The test depends on the animal's ability to utilize spatial visual information in order to locate a submerged escape platform in a water tank. It is important that the tank itself be as devoid of specific visual features as possible—thus, it is always circular in shape, the sides are kept smooth and in uniform dull colors, and the water is rendered opaque with nontoxic watercolor pigment or powdered milk. This is to ensure that the animal navigates only by the use of more distant visual cues, or by the use of intra-maze cues specifically provided by the experimenter. The animals' path, speed, and swim time are tracked with a ceiling camera for later computerized analysis. Over the course of several successive trials, spatial learning can therefore be defined as a drop of distance swum, or time elapsed, from placement in the tank until escape onto the invisible platform. The procedure involved using three-month old (young) and 18-19 month old male C57BL/6N-Nia (aged) mice which habituated to the well known and conventional Morris watermaze during a 4 trials/day, 3-4 day visible platform training phase. […] Swim Distances (cm) were analyzed in a 7×5 ANOVA including Groups and Blocks (1-5) as factors in the analysis, treating Blocks as a repeated measure.

FKBP12 = FKBP12 (Homo sapiens, UniProt P62942); test: Ki test procedure: inhibition of peptidyl-prolyl isomerase (rotamase) activity, chymotrypsin-coupled assay; assay type: biochemical
FKBP12, sequence (P62942 whole entry, species assumed): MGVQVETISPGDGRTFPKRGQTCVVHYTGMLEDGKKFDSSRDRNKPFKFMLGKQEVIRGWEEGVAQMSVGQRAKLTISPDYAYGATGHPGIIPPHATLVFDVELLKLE
From the text: The inhibition of the prolyl peptidyl cis-trans isomerase activity of FKBP may be measured as an indicator of this affinity.
Inhibition of the peptidyl-prolyl isomerase (rotamase) activity of the compounds used in the inventive methods and pharmaceutical compositions can be evaluated by known methods described in the literature (Harding et al., Nature, 1989, 341:758-760; Holt et al. J. Am. Chem. Soc., 115:9923-9938).
The cis-trans isomerization of an alanine-proline bond in a model substrate, N-succinyl-Ala-Ala-Pro-Phe-p-nitroanilide, is monitored spectrophotometrically in a chymotrypsin-coupled assay, which releases para-nitroanilide from the trans form of the substrate. The inhibition of this reaction caused by the addition of different concentrations of inhibitor is determined, and the data is analyzed as a change in first-order rate constant as a function of inhibitor concentration to yield the apparent Ki values.
In a plastic cuvette are added […] of ice cold assay buffer (25 mM HEPES, pH 7.8, 100 mM NaCl), 10 mL of FKBP (2.5 mM in 10 mM Tris-Cl pH 7.5, 100 mM NaCl, 1 mM dithiothreitol), 25 mL of chymotrypsin (50 mg/ml in 1 mM HCl) and […] of test compound at various concentrations in dimethyl sulfoxide. The reaction is initiated by the addition of 5 mL of substrate (succinyl-Ala-Phe-Pro-Phe-para-nitroanilide, 5 mg/mL in 2.35 mM LiCl in trifluoroethanol).
The absorbance at 390 nm versus time is monitored for 90 seconds using a spectrophotometer and the rate constants are determined from the absorbance versus time data files.

[3] = system: retinal ganglion cell axons; test: Protection of retinal ganglion cell axons from degeneration following optic nerve transection (Table V); assay type: in vivo; conditions: ± SEM
From the text: Efficacy of representative compounds from different immunophilin ligand series in protecting retinal ganglion cell axons from degeneration following optic nerve transection is set forth in Table V.
Efficacy of representative compounds from different immunophilin ligand series in protecting retinal ganglion cell axons from degeneration following optic nerve transection

[4] = Clearance (Table V comments, no method given); assay type: in vitro ADME
[5] = apparent Ki, rotamase inhibition, read-out: Ki
[6] = Table V comments, read-out: Ki rotomase

Compound: CCC(C)(C)C(=O)C(=O)N1CCC[C@H]1C(=O)OCCCc1cccnc1 [GPI 1046, 3-(3-pyridyl)-1-propyl (2s)-1-(3,3-dimethyl-1,2-dioxopentyl)-2-pyrrolidinecarboxylate]
- preservation of axons in the proximal stump (RT97 neurofilament) (retinal ganglion cells): preserved the axons of virtually all protected neurons
- neuronal loss in the ONL (retina): did not appear to protect against neuronal loss
- loss of neurons in the INL and GCL (retina; vs streptozotocin/vehicle controls): appeared to decrease the loss of neurons
- ON head area (% sham) ([1]; ONT/14 days treatment): 76%
- ON Axon density ([1]; ONT/14 days treatment): 569
- increased ON axon density ([1]; ONT/14 days treatment): 1.5X
- Distat optic nerve: shrinkage of cross sectional area ([1]; ONT/14 days treatment): did not protect against shrinkage of the distal stump
- Distat optic nerve myclin basic protein Density (myelin level) ([1]; ONT/14 days treatment, cross sectional area multiplied by myelin density): slightly increase the density of myelin
- ON head area (% sham) ([1]; ONT/28 days treatment): 95%*
- ON Axon density ([1]; ONT/28 days treatment): significant increase
- increased ON axon density ([1]; ONT/28 days treatment): 5.0 X
- Distat optic nerve: shrinkage of cross sectional area ([1]; ONT/28 days treatment): prevented cross sectional shrinkage
- pattern of myelin degeneration, proximal stump (myelin basic protein immunohistochemistry) ([1]; first 14 days treatment): did not alter the pattern of myelin degeneration
- pattern of myelin labeling and degenerating myelin figures, distal stump ([1]; first 14 days treatment): density of degenerating myelin figures remained high
- pattern of myelin degeneration, proximal stump (myelin basic protein immunohistochemistry) ([1]; first 28 days treatment): dramatic preservation of the fascicular staining pattern
- pattern of myelin labeling and degenerating myelin figures, distal stump ([1]; first 28 days treatment): dramatic protection of the fascicular pattern of myelin labeling
- density of degenerating myelin figures in optic nerve [2]: dramatically decreased
- difference between young and aged impaired treated groups during retention phase (aged mice; F1.69=3.09, P=0.08): no longer any statistically significant difference
- spatial memory performance (swim distance, retention testing) (aged mice; aged impaired mice, retention testing after 3 weeks of dosing): significantly enhanced spatial memory performance

- Ki (FKBP12; [5]): 51 to 200 nM
Compound: CCC(C)(C)NC(=O)N1CCCC1C(=O)SCCc1ccccc1 (stereo not shown) [Compound 4]

- Ki (FKBP12; [5]): 1 to 50 nM
Compound: O=C(SC(CCc1ccccc1)CCc1ccccc1)C1CCCCN1C(=S)NC1CCCCC1 (stereo not shown) [Compound 15]

- Ki (FKBP12; [5]): 1 to 50 nM
Compound: CCC(C)CNC(=O)N1CCC[C@H]1C(=O)SCCCc1cccnc1 (stereo partly drawn) [Compound 1, 3-(3-Pyridyl)-1-propylmercaptyl 2S-1-[(2-methylbutyl)carbamoyl]pyrrolidine-2-carboxylate]

- Ki (FKBP12; [5]): 1 to 50 nM
Compound: O=C(SCCCc1ccccc1)C1CCCCN1C(=O)Nc1ccccc1 (stereo not shown) [Compound 12]

- Ki (FKBP12; [5]): 51 to 200 nM
Compound: CCC(C)(C)NC(=O)N1CCCCC1C(=O)SCCCc1ccccc1 (stereo not shown) [Compound 11]

Compound: O=C(OCCCCc1ccccc1)[C@@H]1CCCCN1S(=O)(=O)Cc1ccccc1 [D]
- RT97-RGC axon density 11 days after ON transection (36 ON axon rescued) [3]: 58.4% ±6.4% SEM

Compound: CCC(C)(C)C(=O)C(=O)N1CCS[C@H]1C(=O)OCCCc1cccnc1 [F]
- RT97-RGC axon density 11 days after ON transection (36 ON axon rescued) [3]: 55.1% ±5.9% SEM

- Ki (FKBP12; [6]): 7.5 nM
- Clearance [4]: 63.8 µL/min
Compound: 3-(3-pyridyl)-1-propyl (2s)-1-(3,3-dimethyl-1,2-dioxopentyl)-2-pyrrolidinecarboxylate [GPI 1046]
- RT97-RGC axon density 11 days after ON transection (36 ON axon rescued) [3]: 60.5% ±3.9 SEM

- Ki (FKBP12; [5]): 201 to 500 nM
Compound: O=C(SCCCc1cccnc1)C1CCCN1C(=O)NC1CCCCC1 (stereo not shown) [Compound 6]

Compound: CCC(C)(C)C(=O)C(=O)N1CCCC[C@H]1C(=O)SCCC(c1ccccc1)c1ccccc1 [K]
- RT97-RGC axon density 11 days after ON transection (36 ON axon rescued) [3]: 13.0% ±4.2% SEM

- Ki (FKBP12; [6]): 149 nM
Compound: O=C(SCCCc1ccccc1)C1CCCN1C(=O)NC12CC3CC(CC(C3)C1)C2 (stereo not shown) [B]
- RT97-RGC axon density 11 days after ON transection (36 ON axon rescued) [3]: 100.0% ±5.2% SEM

Compound: CCC(C)(C)C(=O)C(=O)N1CCCC[C@H]1C(=O)O [G]
- RT97-RGC axon density 11 days after ON transection (36 ON axon rescued) [3]: 34.0% ±4.8% SEM

Compound: O=C(OCCCc1cccnc1)[C@@H]1CCCN1C(=S)NC1CCCCC1 [I]
- RT97-RGC axon density 11 days after ON transection (36 ON axon rescued) [3]: 23.8% ±5.3 SEM

Compound: CCC(C)(C)C(=O)C(=O)N1CCCC[C@H]1C(N)=O [H]
- RT97-RGC axon density 11 days after ON transection (36 ON axon rescued) [3]: 30.3% ±8.0% SEM

- Ki (FKBP12; [5]): 51 to 200 nM
Compound: CCC(C)(C)NC(=O)N1CCC[C@H]1C(=O)SCCCc1cccnc1 [Compound 2]

Compound: CCC(C)(C)C(=O)C(=O)N1CCC[C@H]1C(=O)CCCCc1cccnc1 [J]
- RT97-RGC axon density 11 days after ON transection (36 ON axon rescued) [3]: 15.8% ±4.8% SEM

- Ki (FKBP12; [5]): 51 to 200 nM
Compound: O=C(SCCCc1cccnc1)[C@@H]1CCCN1C(=S)NC1CCCCC1 [Compound 7, 3-(3-pyridyl)-1-propylmercaptyl 2S-1-[(cyclohexyl)thiocarbamoyl]-pyrrolidine-2-carboxylate]

Compound: CCC(C)(C)C(=O)C(=O)N1CCCC1C(=O)O (stereo not shown) [L]
- RT97-RGC axon density 11 days after ON transection (36 ON axon rescued) [3]: 7.8% ±3.0% SEM
- Clearance [4]: 5.2 µL/min

- Ki (FKBP12; [5]): 51 to 200 nM
Compound: COc1ccc(CCCSC(=O)C2CCCCN2C(=O)NC2CCCCC2)cc1 (stereo not shown) [Compound 16]

Compound: O=C(SCCCc1ccccc1)C1CCCN1S(=O)(=O)Cc1ccccc1 (stereo not shown) [C]
- RT97-RGC axon density 11 days after ON transection (36 ON axon rescued) [3]: 60.4% ±3.1% SEM
- Ki (FKBP12; [6]): 107 nM
- Clearance [4]: 31.1 µL/min

Compound: CCC(C)(C)C(=O)C(=O)N1CCC[C@H]1C(=O)SCCC(c1ccccc1)c1ccccc1 [M]
- RT97-RGC axon density 11 days after ON transection (36 ON axon rescued) [3]: −6.3% +3.9% SEM
